Results published in patent publication US7803930B2, “Antisense modulation of apolipoprotein B-expression” (Isis Pharmaceuticals, Inc., priority 2002, dated 2010).
In the oligonucleotide strings, read from the 5' end, every base follows the letter of its sugar. An asterisk marks phosphorothioate; unmarked linkages are phosphodiester. Other units and linkages are bracketed, terminal groups are in braces. A string of capitals states the bases alone. e = 2'-O-(2-methoxyethyl) (MOE); [5mC] = 5-methylcytosine; d = 2'-deoxy (DNA)

tested on: mouse apolipoprotein B mRNA; assay: Inhibition of mouse apolipoprotein B mRNA levels in primary mouse hepatocytes, real-time PCR; assay type: cell-based; details: Table 3, 150 nM, averages from two experiments
Protocol: Primary mouse hepatocytes were prepared from CD-1 mice purchased from Charles River Labs (Wilmington, Mass.) and were routinely cultured in Hepatoyte Attachment Media (Gibco) supplemented with 10% Fetal Bovine Serum (Gibco/Life Technologies, Gaithersburg, Md.), 250 nM dexamethasone (Sigma), and 10 nM bovine insulin (Sigma). Cells were seeded into 96-well plates (Falcon-Primaria #3872) at a density of 10000 cells/well for use in RT-PCR analysis.
When cells reached 80% confluency, they were treated with oligonucleotide. For cells grown in 96-well plates, wells were washed once with 200 μL OPTI-MEM™-1 reduced-serum medium (Gibco BRL) and then treated with 130 μL of OPTI-MEM™-1 containing 3.75 μg/mL LIPOFECTIN™ (Gibco BRL) and the desired concentration of oligonucleotide. After 4-7 hours of treatment, the medium was replaced with fresh medium. Cells were harvested 16-24 hours after oligonucleotide treatment.
Quantitation of apolipoprotein B mRNA levels was determined by real-time quantitative PCR using the ABI PRISM™ 7700 Sequence Detection System (PE-Applied Biosystems, Foster City, Calif.) according to manufacturer's instructions. This is a closed-tube, non-gel-based, fluorescence detection system which allows high-throughput quantitation of polymerase chain reaction (PCR) products in real-time. As opposed to standard PCR, in which amplification products are quantitated after the PCR is completed, products in real-time quantitative PCR are quantitated as they accumulate. This is accomplished by including in the PCR reaction an oligonucleotide probe that anneals specifically between the forward and reverse PCR primers, and contains two fluorescent dyes. A reporter dye (e.g., JOE, FAM, or VIC, obtained from either Operon Technologies Inc., Alameda, Calif. or PE-Applied Biosystems, Foster City, Calif.) is attached to the 5′ end of the probe and a quencher dye (e.g., TAMRA, obtained from either Operon Technologies Inc., Alameda, Calif. or PE-Applied Biosystems, Foster City, Calif.) is attached to the 3′ end of the probe. When the probe and dyes are intact, reporter dye emission is quenched by the proximity of the 3′ quencher dye. During amplification, annealing of the probe to the target sequence creates a substrate that can be cleaved by the 5′-exonuclease activity of Taq polymerase. […] With each cycle, additional reporter dye molecules are cleaved from their respective probes, and the fluorescence intensity is monitored at regular intervals by laser optics built into the ABI PRISM™ 7700 Sequence Detection System. In each assay, a series of parallel reactions containing serial dilutions of mRNA from untreated control samples generates a standard curve that is used to quantitate the percent inhibition after antisense oligonucleotide treatment of test samples.
Probes and primers to mouse apolipoprotein B were designed to hybridize to a mouse apolipoprotein B sequence, using published sequence information (GenBank accession number M35186, incorporated herein as SEQ ID NO: 10). For mouse apolipoprotein B the PCR primers were: forward primer: CGTGGGCTCCAGCATTCTA (SEQ ID NO: 11) reverse primer: […] (SEQ ID NO: 12) and the PCR probe was: FAM-[…]-TAMRA SEQ ID NO: 13) where FAM (PE-Applied Biosystems, Foster City, Calif.) is the fluorescent reporter dye) and TAMRA (PE-Applied Biosystems, Foster City, Calif.) is the quencher dye. For mouse GAPDH the PCR primers were: forward primer: […] (SEQ ID NO: 14) reverse primer: […] (SEQ ID NO:15) and the PCR probe was: 5′ JOE-[…]-TAMRA 3′ (SEQ ID NO: 16) where JOE (PE-Applied Biosystems, Foster City, Calif.) is the fluorescent reporter dye) and TAMRA (PE-Applied Biosystems, Foster City, Calif.) is the quencher dye.
In accordance with the present invention, a series of oligonucleotides was designed to target different regions of the mouse apolipoprotein B RNA, using published sequence (GenBank accession number M35186, incorporated herein as SEQ ID NO: 10). […]

| Substance | % INHIB |
| --- | --- |
| 147480 (eT*e[5mC]*eT*e[5mC]*eA*d[5mC]*d[5mC]*d[5mC]*dT*d[5mC]*dA*dT*dG*d[5mC]*dT*e[5mC]*e[5mC]*eA*eT*eT; antisense) [compound 147480] | 54% |
| 147481 (eT*eG*eA*e[5mC]*eT*dG*dT*d[5mC]*dA*dA*dG*dG*dG*dT*dG*eA*eG*e[5mC]*eT*eG; antisense) [compound 147481] | 24% |
| 147484 (eT*eT*e[5mC]*eA*eT*d[5mC]*d[5mC]*dG*dA*dG*dA*dA*dG*dT*dT*eG*eG*eG*eA*e[5mC]; antisense) [compound 147484] | 49% |
| 147506 (eA*eG*eG*eA*eA*dG*dG*dA*dA*d[5mC]*dT*d[5mC]*dT*dT*dG*eA*eT*eA*eT*eT; antisense) [compound 147506] | 58% |
| 147763 (eT*eG*e[5mC]*eG*eA*d[5mC]*dT*dG*dT*dG*dT*d[5mC]*dT*dG*dA*eT*eT*eT*e[5mC]*e[5mC]; antisense) [compound 147763] | 34% |
| 147494 (eA*e[5mC]*eA*eA*e[5mC]*dT*dG*dG*dG*dA*dT*dA*dG*dT*dG*eT*eA*eG*e[5mC]*e[5mC]; antisense) [compound 147494] | 84% |
| 147476 (eG*eA*eG*eG*eA*dG*dA*dT*dT*dG*dG*dA*dT*d[5mC]*dT*eT*eA*eA*eG*eG; antisense) [compound 147476] | 13% |
| 147478 (eT*e[5mC]*e[5mC]*eA*eG*dG*dA*dA*dT*dT*dG*dA*dG*d[5mC]*dT*eT*eG*eT*eG*e[5mC]; antisense) [compound 147478] | 78% |
| 147487 (eT*eT*e[5mC]*e[5mC]*e[5mC]*dA*dG*dT*d[5mC]*dA*dG*d[5mC]*dT*dT*dT*eA*eG*eT*eG*eG; antisense) [compound 147487] | 73% |
| 147765 (eA*eG*eG*e[5mC]*e[5mC]*d[5mC]*dA*dG*dT*dT*d[5mC]*d[5mC]*dA*dT*dG*eA*e[5mC]*e[5mC]*e[5mC]*eT; antisense) [compound 147765] | 59% |
| 147762 (eA*eT*eG*e[5mC]*eT*d[5mC]*d[5mC]*dA*dT*dT*d[5mC]*dT*d[5mC]*dA*d[5mC]*eA*eT*eG*e[5mC]*eT; antisense) [compound 147762] | 46% |
| 147775 (antisense e[5mC]*eT*eG*eT*e[5mC]*dA*dT*dG*dA*d[5mC]*dT*dG*d[5mC]*d[5mC]*d[5mC]*eT*eT*eT*eA*e[5mC]) [compound 147775] | 52% |
| 147768 (e[5mC]*e[5mC]*e[5mC]*eA*eT*dA*dT*dG*dG*dA*dG*dA*dA*dA*dT*e[5mC]*e[5mC]*eT*eT*e[5mC]; antisense) [compound 147768] | 24% |
| 147767 (e[5mC]*eG*eT*e[5mC]*e[5mC]*dT*dT*dG*dA*dG*d[5mC]*dA*dG*dT*dG*e[5mC]*e[5mC]*e[5mC]*eG*eA; antisense) [compound 147767] | 5% |
| 147485 (eA*eT*eT*eT*eG*dG*dG*dA*d[5mC]*dG*dA*dA*dT*dG*dT*eA*eT*eG*e[5mC]*e[5mC]; antisense) [compound 147485] | 64% |
| 147491 (eG*eA*eG*eA*eA*dA*dT*d[5mC]*d[5mC]*dT*dT*d[5mC]*dA*dG*dT*eA*eA*eG*eG*eG; antisense) [compound 147491] | 71% |
| 147502 (eA*eT*eG*eG*eG*dA*dG*d[5mC]*dA*dT*dG*dG*dA*dG*dG*eT*eT*eG*eG*e[5mC]; antisense) [compound 147502] | 16% |
| 147495 (eG*eT*eT*eA*eG*dG*dA*d[5mC]*d[5mC]*dA*dG*dG*dG*dA*dT*eT*eG*eT*eG*eA; antisense) [compound 147495] | 0% |
| 147778 (antisense eT*e[5mC]*eA*eG*eA*dT*dA*dT*dA*d[5mC]*dA*dT*dT*dG*dG*e[5mC]*eT*eT*e[5mC]*eA) [compound 147778] | 14% |
| 147773 (antisense e[5mC]*eA*eT*e[5mC]*eA*dG*dA*d[5mC]*dG*dT*dG*dA*dT*dG*dT*eT*e[5mC]*e[5mC]*e[5mC]*eT) [compound 147773] | 85% |
| 147503 (eA*eA*eT*eG*eG*dA*dT*dG*dA*dT*dG*dA*dA*dA*d[5mC]*eA*eG*eT*eG*eG; antisense) [compound 147503] | 26% |
| 147761 (eG*eT*eT*e[5mC]*eA*dT*dG*dG*dA*dT*dT*d[5mC]*d[5mC]*dT*dT*e[5mC]*eA*eG*eG*eA; antisense) [compound 147761] | 45% |
| 147475 (eA*eT*eT*eG*eT*dA*dT*dG*dT*dG*dA*dG*dA*dG*dG*eT*eG*eA*eG*eG; antisense) [compound 147475] | 79% |
| 147492 (e[5mC]*eA*eA*eT*eG*dG*dA*dA*dT*dG*d[5mC]*dT*dT*dG*dT*e[5mC]*eA*e[5mC]*eT*eG; antisense) [compound 147492] | 68% |
| 147498 (eT*eG*eG*eG*e[5mC]*dA*dA*d[5mC]*dG*dA*dT*dA*dT*d[5mC]*dT*eG*eA*eT*eT*eG; antisense) [compound 147498] | 0% |
| 147507 (eA*eT*eT*eG*eG*d[5mC]*dT*dT*d[5mC]*dA*dT*dT*dG*dG*d[5mC]*eA*eA*e[5mC]*eA*e[5mC]; antisense) [compound 147507] | 81% |
| 147505 (eG*eG*eA*eA*eG*dT*dG*dA*dG*dA*d[5mC]*dT*dT*dT*d[5mC]*eT*eA*eA*eG*e[5mC]; antisense) [compound 147505] | 76% |

tested on: rabbit apolipoprotein B mRNA; assay: Inhibition of rabbit apolipoprotein B mRNA levels in primary rabbit hepatocytes, real-time PCR; assay type: cell-based; design: % INHIB of rabbit apolipoprotein B mRNA levels: concentration or dose not given beside the values; details: not given
From the text: Primary rabbit hepatocytes were purchased from Invitro Technologies (Gaithersburg, Md.) and maintained in Dulbecco's modified Eagle's medium (Gibco). When purchased, the cells had been seeded into 96-well plates for use in RT-PCR analysis and were confluent.
In accordance with the present invention, a series of oligonucleotides was designed to target different regions of rabbit apolipoprotein B, using published sequences (GenBank accession number X07480.1, incorporated herein as SEQ ID NO: 808, GenBank accession number M17780.1, incorporated herein as SEQ ID NO: 809, and a sequence was derived using previously described primers (Tanaka, Journ. Biol. Chem., 1993,268, 12713-12718) representing an mRNA of the rabbit apolipoprotein B, incorporated herein as SEQ ID NO: 810). “Target site” indicates the first (5′-most) nucleotide number on the particular target sequence to which the oligonucleotide binds. All compounds in Table 21 are chimeric oligonucleotides (“gapmers”) 20 nucleotides in length, composed of a central “gap” region consisting of ten 2′-deoxynucleotides, which is flanked on both sides (5′ and 3′ directions) by five-nucleotide “wings”. The wings are composed of 2′-methoxyethyl (2′-MOE)nucleotides. The internucleoside (backbone) linkages are phosphorothioate (P═S) throughout the oligonucleotide. All cytidine residues are 5-methylcytidines. The compounds were analyzed for their effect on rabbit apolipoprotein B mRNA levels in primary rabbit hepatocytes by quantitative real-time PCR as described in other examples herein. Primary rabbit hepatocytes were treated with 150 nM of the compounds in Table 21. For rabbit apolipoprotein B the PCR primers were: • forward primer: AAGCACCCCCAATGTCACC (SEQ ID NO: 811) • reverse primer: […] (SEQ ID NO: 812) and the PCR probe was: FAM-[…]-TAMRA (SEQ ID NO: 813) where FAM (PE-Applied Biosystems, Foster City, Calif.) is the fluorescent reporter dye) and TAMRA (PE-Applied Biosystems, Foster City, Calif.) is the quencher dye. Data are averages from two experiments. If present, “N.D.” indicates “no data”.
In accordance with the present invention, a subset of the antisense oligonuclotides in Example 42 was further investigated in dose-response studies. Treatment doses were 10, 50, 150 and 300 nM. ISIS 233160 (SEQ ID NO: 824), ISIS 233166 (SEQ ID NO: 830), ISIS 233172 (SEQ ID NO: 835), ISIS 233175 (SEQ ID NO: 838), and ISIS 233183 (SEQ ID NO: 846) were analyzed for their effect on rabbit apolipoprotein B mRNA levels in primary rabbit hepatocytes by quantitative real-time PCR as described in other examples herein.

| Substance | % INHIB of rabbit apolipoprotein B mRNA levels |
| --- | --- |
| 233174 (antisense eT*eG*eT*eG*e[5mC]*dA*d[5mC]*dG*dG*dA*dT*dA*dT*dG*dA*eT*eA*eA*e[5mC]*eG) [compound 233174] | 21% |
